For experiment [1], the system named is platelet aggregation caused by collagen (platelet-rich plasma). Description: Platelet aggregation-inhibitory action, collagen (20 μg/ml) induced, Born's turbidometric method. The following applies: Oryctolagus cuniculus, 0.05 h, read-out: 50% inhibitory concentration, Collagen. The format is cell-based, rabbit. Here is the method:
(§1) Blood was drawn from the carotid artery of a rabbit using a syringe containing 3.8% solution of sodium citrate in an amount of […] per volume of the solution. The blood was centrifuged to obtain platelet-rich plasma (PRP: 5×10^5 platelets/μl).
(§2) In a cuvette was placed 250 μl of the PRP, which is warmed in a constant-temperature bath at 37° C. for 2 min. To the warmed cuvette was added 20 μl of a solution of an alkanolamine derivative to be tested (a […] ethanol solution which had been diluted with Trisbuffered isotonic saline solution). The mixture was then incubated for 3 min., followed by addition of a aggregation inducer, an arachidonic acid solution or a collagen solution. Measurement of the platelet aggregation was made by Born's turbidometric method (e.g., described in J. Physiol., Vol. 168, P. 178, 1968). The 50% inhibitory concentration for the platelet aggregation caused by arachidonic acid (100 μM) or collagen (20 μg/ml) is given in Table 1 with reference to Aspirin for comparison.
(§3) The 50% inhibitory concentration as shown in the table means the concentration of an alkanolamine derivative required for inhibiting aggregation ability of the platelets to 50% when the aggregation ability of the platelets in the absence of the alkanolamine derivative of the invention is taken as 100%.

The test system of experiment [2] is platelet aggregation caused by arachidonic acid (platelet-rich plasma). Put plainly: Platelet aggregation-inhibitory action, arachidonic acid (100 μM) induced, Born's turbidometric method. Particulars: Oryctolagus cuniculus, 0.05 h, read-out: 50% inhibitory concentration, Arachidonic acid. In kind it is cell-based, rabbit. The protocol: as §1, §2, §3
[3] abbreviates: rabbit PRP, 37° C., 3 min. incubation, collagen 20 μg/ml.
Where [4] appears, read: rabbit PRP, 37° C., 3 min. incubation, arachidonic acid 100 μM.

Read-outs that look alike come from different tables or passages of the source.

Take `CC(=O)Oc1ccccc1C(=O)O` [Aspirin, reference compound]: the IC50 in experiment [1] turned out to be 13.6 µM; in experiment [2] it was 14 µM.
Take `CC/C=C\C/C=C\C/C=C\C/C=C\C/C=C\CCCC(=O)NCCO` [Example 1, N-5,8,11,14,17-eicosapentaenoyl-2-aminoethanol]: the figures for the IC50 in experiment [1] (setting [3]) and in experiment [2] (setting [4]) were 98 µM and 22 µM, respectively.
In the case of `CC/C=C\C/C=C\C/C=C\C/C=C\C/C=C\CCCC(=O)OCCNC(=O)c1cccnc1` [Example 2, N-nicotinoyl-2-aminoethyl 5,8,11,14,17-eicosapentaenoate], the IC50 came out at 93 µM in experiment [1] (setting [3]) and 11 µM in experiment [2] (setting [4]).
Take `CC/C=C\C/C=C\C/C=C\CCCCCCCC(=O)OCCNC(=O)c1cccnc1` [Example 3, N-nicotinoyl-2-aminoethyl 9,12,15-octadecatrienoate]: the IC50 in experiment [1] (setting [3]) stood at 140 µM; in experiment [2] (setting [4]) it was 49 µM.
For `CCCCC/C=C\C/C=C\C/C=C\CCCCC(=O)OCCNC(=O)c1cccnc1` [Example 4, N-nicotinoyl-2-aminoethyl 6,9,12-octadecatrienoate], in that order: 190 µM and 36 µM.
`CC/C=C\C/C=C\C/C=C\C/C=C\C/C=C\CCCC(=O)NCCOC(=O)c1cccnc1` [Example 5, N-5,8,11,14,17-eicosapentaenoyl-2-aminoethyl nicotinate]: the figures for the IC50 in experiment [1] (setting [3]) and in experiment [2] (setting [4]) were 90 µM and 8.8 µM, respectively.
For `CC/C=C\C/C=C\C/C=C\C/C=C\C/C=C\CCCC(=O)N(CC)CCO` [Example 6, N-ethyl-N-5,8,11,14,17-eicosapentaenoyl-2-aminoethanol], in that order: 273 µM and 3.57 µM.
For `CC/C=C\C/C=C\C/C=C\C/C=C\C/C=C\CCCC(=O)N(CCO)CCCC` [Example 7, N-butyl-N-5,8,11,14,17-eicosapentaenoyl-2-aminoethanol], in that order: 187 µM and 3.55 µM.
In the same order, the values of `CC/C=C\C/C=C\C/C=C\C/C=C\C/C=C\CCCC(=O)N(C)CCOC(=O)c1cccnc1` [Example 8, N-methyl-N-5,8,11, 14,17-eicosapentaenoyl-2-aminoethylnicotinate] are 111 µM and 6.62 µM.
On to `CC/C=C\C/C=C\C/C=C\CCCCCCCC(=O)N(C)CCOC(=O)c1cccnc1` [Example 9, N-methyl-N-9,12,15-octadecatrienoyl-2-aminoethylnicotinate], for which the values for the IC50 in experiment [1] (setting [3]) and in experiment [2] (setting [4]) were 273 µM and 8.24 µM, respectively.
Consider `CC/C=C\C/C=C\C/C=C\C/C=C\C/C=C\CCCC(=O)N(CC)CCOC(=O)c1cccnc1` [Example 10, N-ethyl-N-5,8,11,14,17-eicosapentaenoyl-2-aminoethylnicotinate], for which the figures for the IC50 in experiment [1] (setting [3]) and in experiment [2] (setting [4]) were 91.7 µM and 4.99 µM, respectively.
Consider `CC/C=C\C/C=C\C/C=C\C/C=C\C/C=C\CCCC(=O)N(CCCC)CCOC(=O)c1cccnc1` [Example 11, N-butyl-N-5,8,11,14,17-eicosapentaenoyl-2-aminoethylnicotinate], for which the IC50 in experiment [1] (setting [3]) was 197 µM; in experiment [2] (setting [4]) it was 6.03 µM.
For `CC/C=C\C/C=C\C/C=C\C/C=C\C/C=C\CCCC(=O)NCCCOC(=O)c1cccnc1` [Example 12, N-5,8,11,14,17-eicosapentaenoyl-3-aminopropylnicotinate], in that order: 55.3 µM and 3.44 µM.
For `CC/C=C\C/C=C\C/C=C\C/C=C\C/C=C\CCCC(=O)OCCN(CC)C(=O)c1cccnc1` [Example 13, (N-ethyl-N-nicotinoyl-2-aminoethyl)-5,8,11,14,17-eicosapentaenoate], the IC50 in experiment [1] (setting [3]) was 401 µM; in experiment [2] (setting [4]), 255 µM.
On to `CC/C=C\C/C=C\C/C=C\C/C=C\C/C=C\CCCC(=O)N(C)CCOCc1cccnc1` [Example 14, [N-methyl-N-(5,8,11,14,17-eicosapentaenoyl)-2-aminoethyl]-β-picolylether], for which the IC50 in experiment [1] (setting [3]) came out at 50.1 µM; in experiment [2] (setting [4]), 5.68 µM.
`CC/C=C\C/C=C\C/C=C\C/C=C\C/C=C\CCCC(=O)N(CCCC)CCOCc1cccnc1` [Example 15]: the results for the IC50 in experiment [1] (setting [3]) and in experiment [2] (setting [4]) were 123 µM and 7.07 µM, respectively.
Take `CC/C=C\C/C=C\C/C=C\C/C=C\C/C=C\CCCC(=O)NCCOCc1cccnc1` [Example 16, (N-5,8,11,14,17-eicosapentaenoyl)-2-aminoethyl β-picolyl ether]: the IC50 in experiment [1] (setting [3]) amounted to 50.1 µM; in experiment [2] (setting [4]), 5.68 µM.
For the compound `CC/C=C\C/C=C\C/C=C\CCCCCCCC(=O)NCCCOCc1cccnc1` [Example 17, (N-9,12,15-octadecatrienoyl)-3-aminopropyl β-picolylether], the IC50 was found to be 123 µM in experiment [1] (setting [3]) and 7.07 µM in experiment [2] (setting [4]).

The values are drawn from US4619938A, “Fatty acid derivatives of aminoalkyl nicotinic acid esters and platelet aggregation inhibitors” (Terumo Kabushiki Kaisha, priority 1984, dated 1986).
